Measurements taken from PubChem BioAssay AID1224911.

Target: Serine/threonine-protein kinase PAK 2 (Homo sapiens) (UniProt Q13177)
Assay: PubChem AID 1224911
Conditions: Caliper in vitro kinase assay, phosphorylated PAK2

Sequence of Serine/threonine-protein kinase PAK 2 (Homo sapiens) (Q13177 whole entry, looked up): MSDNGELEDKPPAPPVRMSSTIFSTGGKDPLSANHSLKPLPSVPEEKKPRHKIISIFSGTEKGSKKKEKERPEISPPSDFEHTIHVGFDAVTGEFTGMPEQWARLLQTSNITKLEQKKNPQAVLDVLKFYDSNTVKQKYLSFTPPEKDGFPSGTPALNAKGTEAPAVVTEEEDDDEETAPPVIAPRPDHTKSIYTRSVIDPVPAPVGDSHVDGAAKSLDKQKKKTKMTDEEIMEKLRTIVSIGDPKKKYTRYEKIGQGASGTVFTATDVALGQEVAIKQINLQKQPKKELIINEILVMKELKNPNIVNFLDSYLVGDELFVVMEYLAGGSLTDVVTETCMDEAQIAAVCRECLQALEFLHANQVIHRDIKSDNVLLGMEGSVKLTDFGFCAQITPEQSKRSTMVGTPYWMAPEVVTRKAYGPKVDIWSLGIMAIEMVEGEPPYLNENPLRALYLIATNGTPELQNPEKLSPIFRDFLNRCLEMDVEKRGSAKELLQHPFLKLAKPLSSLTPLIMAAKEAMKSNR

IC50: 720 nM
Compound: CC(C)NC(=O)N1CC[C@H](N=C2Nc3cc(F)ccc3N(CC(F)F)c3ccc(Cl)cc32)C1
